# Tests used:
# [1] = GSH adduct screening assay; assay type: in vitro ADME, rat and human; design: key: No flag: No Flag: no GSH adduct formation observed when compared to control (DMSO); conditions: 20 μM, RLM and HLM, 60 minutes
# Method: The formation of reactive metabolites is an unwanted drug property because of the idiosyncratic clinical adverse effect. GSH adduct formation is used to evaluate the formation of reactive metabolites in vitro. Positive controls were Diclofenac, Troglitazone, Nefazodone and mGluR5. Solvent control was DMSO.
# All compounds including positive and solvent control were incubated using a 96-deep-well plate (Eppendorf) at 20 μM (addition of 1 μL of 10 mM DMSO stock solution) in 450 μL of 0.1 M sodium phosphate buffer at pH 7.4 containing rat liver microsomes (RLM) and human liver microsomes (HLM). Microsomal protein concentration is 1 mg/mL. Pipetting was performed using a TECAN pipetting robot. The buffer was prepared at room temperature by combining 2.62 g NaH2PO4.1H2O and 14.43 g Na2HPO4.2H2O dissolved in H2O (Millipore, >18 MΩ) to a weight of 1000 g (pH 7.4). After 5 minutes of pre-incubation at 37° C. the reaction was started by adding 50 μL of buffer containing GSH (100 mM) and NADPH (20 mM). Fresh stock solutions of GSH and NADPH were prepared straight before each experiment. The final concentrations were […] for GSH and 1 mM for NADPH. After 60 minutes of incubation at 37° C. (shaking at 800 rpm) the reaction is quenched with 500 μL of cold acetonitrile and centrifuged at 5000×g at 25° C. for 11 minutes. Before LC-MS/MS analysis the supernatant was split to two fractions, 450 μL and 400 each followed by evaporation using a N2 stream at 35° C. to a volume of approximately […].
# Sample clean-up and chromatography of analytes were performed on-line by a column-switching set-up of two HPLC columns. From each sample 50 μL were injected (Shimadzu SilHTC) and loaded with water containing 0.1% formic acid onto a trapping column (Waters Oasis HLB 2.1×10 mm, 25 μm) with a flow rate of 0.3 mL/min. After 1.5 min the trapped analytes were then flushed (included a change in flow direction on the trapping column) onto an analytical column (Waters Atlantis T3 2.1×100 mm, 3 μm) with a total flow of 0.2 mL/min starting with 95/5% water containing 0.1% formic acid/acetonitrile. The fraction of acetonitrile was increased to 20% acetonitrile between 2 and 2.5 minutes, to 70% at 10 minutes and to 98% at 11 minutes. After 12 minutes the analytical column was equilibrated to start conditions (5% acetonitrile). […] The total running time was 14 min per sample.
# A triple quadrupole-linear ion trap mass spectrometer 4000 Qtrap equipped with an electrospray ionization source (Turbo V) was used, both from Applied Biosystems/MDS Sciex. Based on a published method of Dieckhaus et al. (2005) a precursor ion survey scan (PreIS) method was used to detect GSH-conjugates in negative ion mode. Briefly, as survey scan ions (400 to 900 amu within 2 seconds) are scanned for precursors of m/z 272 amu, the ion spray voltage was −4200 V, the source temperature 500° C., nitrogen was used as curtain and collision gas. If the parent molecule exceeds a molecular mass of 500 the scan range was changed to 500 amu to 1000 amu within 2 seconds. For signals in the survey scan exceeding 7500 cts (that was approximately 5 times of the background signal), enhanced resolution scan and enhanced product ion scan were triggered which allowed isotope determination and confirmation of a positive GSH adduct by the presence of diagnostic fragment ions. Further instrument settings were as following: Curtain gas: 30 psi, CAD gas: 10 psi Gas 1: 30 psi, Gas 2: 50 psi, declustering potential: −70 V, entrance potential: −10 V, collision energy: −24 V, and cell exit potential −15 V. Data acquisition was performed using Analyst 1.4.2, data analysis, i.e. sample control (solvent) comparisons were performed with Metabolite ID 1.3 (Applied Biosystems/MDS Sciex). (reference: Dieckhaus, C. M., Fernandez-Metzler, C. L., King, R., Krolikowski, P. H., and Baillie, T. A. (2005). Negative ion tandem mass spectrometry for the detection of glutathione conjugates. Chem Res Toxicol 18, 630-638).
# [2] = Metabolic stability in human liver microsomes; conditions: 1 μM test compound, 0.5 mg/mL microsomal protein; 6.15 mL/min/kg is the limitation of assay sensitivity
# In short: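 Test compound at 1 μM with 0.5 mg/mL microsomal protein in 100 mM potassium phosphate, pH 7.4, 37 °C, 10 min preincubation, reaction started with NADPH regenerating system. Sampled at 0, 3, 6, 9, 15 and 30 min, quenched with cold ACN, remaining parent by LC-MS/MS. No-NADPH controls at 0 and 30 min.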
Compound,GSH results [1],Human Liver Microsome Clearance [2]
"CCCS(=N)(=O)c1nc(N)c2[nH]c(=O)n(Cc3ccccc3)c2n1 (single isomer, unassigned) [Example 4-A, 6-Amino-9-benzyl-2-(propylsulfonimidoyl)-7H-purin-8-one]",No flag,–
"CCCS(=N)(=O)c1nc(N)c2[nH]c(=O)n(Cc3ccccc3)c2n1 (single isomer, unassigned) [Example 4-B, 6-Amino-9-benzyl-2-(propylsulfonimidoyl)-7H-purin-8-one]",No flag,–
"CCCS(=N)(=O)c1nc(N)c2[nH]c(=O)n(Cc3ccc(C)cc3)c2n1 (single isomer, unassigned) [Example 29-A, 6-Amino-2-(propylsulfonimidoyl)-9-(p-tolylmethyl)-7H-purin-8-one]",No flag,<6.15 mL/min/kg
"CCS(=N)(=O)c1nc(N)c2[nH]c(=O)n(Cc3ccc(Cl)cc3)c2n1 (single isomer, unassigned) [Example 70-A, 6-Amino-9-[(4-chlorophenyl)methyl]-2-(ethylsulfonimidoyl)-7H-purin-8-one]",No flag,<6.15 mL/min/kg
"CCS(=N)(=O)c1nc(N)c2[nH]c(=O)n(Cc3ccc(Cl)cc3)c2n1 (single isomer, unassigned) [Example 70-B, 6-Amino-9-[(4-chlorophenyl)methyl]-2-(ethylsulfonimidoyl)-7H-purin-8-one]",No flag,<6.15 mL/min/kg
"CCS(=N)(=O)c1nc(N)c2[nH]c(=O)n(Cc3ccc(C)cc3)c2n1 (single isomer, unassigned) [Example 71-A, 6-Amino-2-(ethylsulfonimidoyl)-9-(p-tolylmethyl)-7H-purin-8-one]",No flag,<6.15 mL/min/kg
"CCCS(=N)(=O)c1nc(N)c2[nH]c(=O)n(Cc3ccccc3)c2n1 (stereo not drawn) [Example 4, 6-Amino-9-benzyl-2-(propylsulfonimidoyl)-7H-purin-8-one]",No flag,<6.15 mL/min/kg
"CCCS(=N)(=O)c1nc(N)c2[nH]c(=O)n(Cc3ccc(Cl)cc3)c2n1 (stereo not drawn) [Example 9, 6-Amino-9-[(4-chlorophenyl)methyl]-2-(propylsulfonimidoyl)-7H-purin-8-one]",No flag,–
"CCCS(=N)(=O)c1nc(N)c2[nH]c(=O)n(Cc3ccc(F)c(F)c3)c2n1 (stereo not drawn) [Example 27, 6-Amino-9-(3,4-difluorophenylmethyl)-2-(propylsulfonimidoyl)-7H-purin-8-one]",No flag,–
"CCCS(=N)(=O)c1nc(N)c2[nH]c(=O)n(Cc3ccc(C)nc3)c2n1 (stereo not drawn) [Example 34, 6-Amino-9-[(6-methyl-3-pyridyl)methyl]-2-(propylsulfonimidoyl)-7H-purin-8-one]",No flag,<6.15 mL/min/kg
"CCCS(=N)(=O)c1nc(N)c2[nH]c(=O)n(Cc3ccc(C(=O)O)cc3)c2n1 (stereo not drawn) [Example 39, 4-[[6-Amino-8-oxo-2-(propylsulfonimidoyl)-7H-purin-9-yl]methyl]benzoic acid]",No flag,<6.15 mL/min/kg

# — patent US9708325B2, “Sulfonimidoylpurinone compounds and derivatives for the treatment and prophylaxis of virus infection” (Hoffmann-La Roche Inc., priority 2015, dated 2017)
